Assay results taken from patent US11173173B2, “Methods for treating chemoresistant cancer-initiating cells” (UNIVERSITY OF CONNECTICUT, priority 2015, dated 2021).

What was measured:
[1] = cited from earlier work
colon cancer = settings: in vitro; cited from earlier work
pan β-catenin = experiment: Western analysis of pan β-catenin in compound-treated TOP and FOP cells; settings: TOP and FOP cells treated 48 hours at EC90, EC50, EC25
Experimental: (§1) Cytotoxicity profiles (CTG) of compounds were also determined. […] TOP and FOP cells were treated with candidate compounds at EC90, EC50 and EC25 derived from (b) for 48 hours, washed and flash frozen for Western analysis (c).
(§2) Activity of compounds was tested against HEK-TOP cells vs. HEK FOP cells for inhibition of luciferase activity. The cytotoxicity profiles of the compounds were also tested using Cell Titer Glo assay (Promega) on HEK-TOP cell lines. […] The HEK cells and HEK Top cells were plated at 300,000 cells/well in 6 well plates and were treated in duplicate with EC90, EC50 and EC25 concentrations of the 25 repurchased compounds as well as three controls. After 48 h of exposure, the cells were washed with PBS and flash frozen. The frozen cells were lysed directly in plates for Western analysis.

[2] = system: BM cells isolated from leukemic Pten:β-cat^Act double mutants (LSCs, HSPCs); experiment: In vitro treatment of BM cells from leukemic mice, flow cytometry for LSCs and HSPCs; type: cell-based, mouse; settings: BM cells from leukemic double mutants in vitro
Experimental: Doxorubicin, 0105375, and thioguanosine were added to 11, 33 or 100 nM and cultured for 72 hours and analyzed by flow cytometry for LSCs (a) and HSPCs (b) as in FIG. 1. Fold change before and after culture for each population is indicated relative to equivalent vehicle control concentrations.
Bone marrow cells from leukemic mice at 8 weeks post-induction were cultured overnight at 5-20×10^4 cells per well in 96-well U-bottom tissue culture plates (Becton, Dickinson and Company; Cat. No. 353077) in HSC expansion media in low O2 conditions as previously described (Perry, J. M. et al. Cooperation between both Wnt/{beta}-catenin and PTEN/PI3K/Akt signaling promotes primitive hematopoietic stem cell self-renewal and expansion. Genes Dev 25, 1928-1942 (2011)). Doxorubicin (Sigma; D1515), 0105375 ((S)-N-(2-bromobenzyl)-N-(1-hydroxy-3-phenylpropan-2-yl)ethenesulfonamide, University of Kansas CMLD compound), or Thioguanosine was mixed with HSC expansion media and added to the cultures to obtain final concentrations of 11, 33, 100 nM. Equivalent amounts of DMSO alone (vehicle control) were added to parallel cultures for comparison. Half-media changes were performed approximately every 24 hrs. Cultures were analyzed after 72 hrs exposure to the indicated drug.

pS^552-β-catenin = experiment: Western analysis of pS552-β-catenin in compound-treated TOP and FOP cells
Experimental: as §1, §2

SMILES: Oc1nc(-c2ccc(C(F)(F)F)cc2)nc2c1CSCC2 [XAV-939]
- activity in vivo [1]: low activity of this inhibitor in vivo
- reversal of resistance to PI3K and Akt inhibitors (colon cancer): reverse this resistance in vitro

SMILES: C=CS(=O)(=O)N(Cc1ccccc1Br)[C@H](CO)Cc1ccccc1 [compound 0105375, (S)-N-(2-bromobenzyl)-N-(1-hydroxy-3-phenylpropan-2-yl)ethenesulfonamide]
- effect on pan β-catenin (Western) (pan β-catenin): no significant effect on pan β-catenin
- potency relative to DXR [2]: far less potency than DXR
- inhibition of pS552-β-catenin (Western) (pS^552-β-catenin; TOP and FOP cells treated 48 hours at EC90, EC50, EC25): effectively inhibited pS^552-β-catenin
- concentration needed to inhibit pS552-β-catenin (pS^552-β-catenin; relatively high concentrations): > 1 μM
